In assay [1] the target is T1, GAL4-RORγ (GAL4 DBD fused to the ROR gamma ligand-binding domain) (Homo sapiens, UniProt P51449).
T1 construct: expressed in transfected cells; host or cells: HG5LN (HeLa line with GAL4-responsive luciferase reporter)
T1 sequence (P51449 269-508 limits assumed): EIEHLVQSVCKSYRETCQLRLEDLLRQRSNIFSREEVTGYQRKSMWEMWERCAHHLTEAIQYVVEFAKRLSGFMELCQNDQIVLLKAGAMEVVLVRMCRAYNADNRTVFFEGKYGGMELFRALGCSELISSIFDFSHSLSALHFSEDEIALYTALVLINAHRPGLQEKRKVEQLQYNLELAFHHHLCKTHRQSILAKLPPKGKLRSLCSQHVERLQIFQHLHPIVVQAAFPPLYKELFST
As to the kind of experiment: GAL4-RORγ transactivation (luciferase reporter, HG5LN HeLa line). It counts as cell-based. The settings on record: HG5LN HeLa cells, 18 hours incubation, luciferase luminescence, read-out: IC50 hRORg. The text has this: (§1) In the tables described above, the median inhibitory concentrations IC50 for the compounds belonging to formula (I) according to the invention have been given according to the following models:
GAL4-RORγ Transactivation
The RORγ transactivation model was developed from the line HG5LN, which is a HeLa line that stably expresses a luciferase reporter gene controlled by a pentamer of the GAL4 recognition domain of yeast and of a β-globin promoter. The HG5LN line was stably transfected by the DNA-binding domain (DBD) of GAL4 fused to the ROR gamma ligand-binding domain (LBD). Molecules that inhibit the ROR gamma constitutive activity reduce the luciferase expression, thus leading to a reduction in the emitted luminescence.
The cells are seeded in 384-well plates (5000 cells in 45 μL/well of culture medium containing 10% fetal calf serum) and incubated for 4 hours at 37° C., 5% CO2. 5 μL of the test molecules (compounds described in the tables described above) are then added to each well and the plates are incubated for 18 hours at a temperature of 37° C. under 5% of CO2. 20 μL of luciferase substrate (Promega) are added to each well and the luminescence emitted is read by a microplate reader.
The luminescence units (“RLU”) are normalized by positive controls (“POS” containing a saturated concentration of N-(2,2,2-trifluoroethyl)-N-[4-[2,2,2-trifluoro-1-hydroxy-1-(trifluoromethyl)ethyl]phenyl])benzenesulfonamide and negative controls (“NEG” containing DMSO): % inhibition=((RLU−NEG)*100)/(POS−NEG). The IC50 values are calculated from a 4-parameter logistic model using the XLFit software (IDBS).
In general terms: In a reporter assay the amount or activity of a reporter protein is the signal.

Assay [2] relates to IL-17A secretion by CD4+ cells. As to the kind of experiment: IL-17A secretion by activated CD4+ cells (HTRF). The format is cell-based. To be noted: 96 h; human CD4+ cells activated with anti-CD3 and anti-CD28, 4 days of incubation, inhibitors 1000 nM to 0.05 nM; read-out: IC50 hCD4/IL17. The method, then: as §1
This model allows measurement of the effect of inhibitors on IL-17A secretion by CD4+ cells. The cells are frozen CD4+ cells (STEMCELL, #70026), isolated from peripheral human blood and activated with anti-CD3 and anti-CD28 antibodies. The amount of IL-17a secreted is measured by the TR-FRET (kit HTRF® Human Interleukin 17A (Cisbio, #64H17PEC)) technology.
The cells are rapidly thawed, resuspended in their culture medium (RPMI inactivated 10% FCS) supplemented with soluble anti-CD28 antibodies and seeded (100 000 cells/well) in 96-well plates precoated with anti-CD3 antibodies. The cells are then treated with the ranges of inhibitors to be tested (from 1000 nM to 0.05 nM, 0.1% DMSO). After 4 days of incubation, the HTRF signal is measured using a microplate reader (λexcitation=337 nm, λemission=620/665 nm). The ratios obtained (665/620) are normalized relative to the positive control (cells activated with anti-CD3 and anti-CD28, 0.1% DMSO). The IC50 values are calculated from a 4-parameter logistic model using the XLFit software (IDBS).
A general note: In TR-FRET formats the signal depends on donor and acceptor labels being close together.

Molecules are shown by their SMILES.

As for `CCc1ccc(N(C(CC)CC)S(=O)(=O)c2ccc3c(cnn3CC3CCOCC3)c2)cc1` [Compound 1, 1-(tetrahydropyran-4-ylmethyl)-1H-indazole-5-sulfonic acid (4-ethylphenyl)(1-ethylpropyl)amide], the IC50 in assay [1] and in assay [2] was 100 to 1000 nM in each case.
Consider `CCc1ccc(N(CC(C)C)S(=O)(=O)c2ccc3c(cnn3Cc3ccncc3)c2)cc1` [Compound 36, N-(4-ethylphenyl)-N-isobutyl-1-(pyridin-4-ylmethyl)-1H-indazole-5-sulfonamide], for which the IC50 in assay [1] is 100 to 1000 nM; in assay [2] it was < 100 nM.
Regarding `CCc1ccc(N(CC(C)C)S(=O)(=O)c2ccc3c(cnn3CC3COC3)c2)cc1` [Compound 37, N-(4-ethylphenyl)-N-isobutyl-1-(oxetan-3-ylmethyl)-1H-indazole-5-sulfonamide], the figures for the IC50 in assay [1] and in assay [2] were 100 to 1000 nM and < 100 nM, respectively.
In the case of `CCc1ccc(N(CC(C)C)S(=O)(=O)c2ccc3c(cnn3CC3CCOCC3)c2)cc1` [Compound 39, N-(4-ethylphenyl)-N-isobutyl-1-((tetrahydro-2H-pyran-4-yl)methyl)-1H-indazole-5-sulfonamide], the IC50 in assay [1] and in assay [2] was 100 to 1000 nM each time.
Take `COC(=O)c1ccc(N(CC(C)C)S(=O)(=O)c2ccc3c(cnn3CC3CCOCC3)c2)c(C)c1` [Compound 56, methyl 4-{isobutyl[1-(tetrahydropyran-4-ylmethyl)-1H-indazole-5-sulfonyl]amino}-3-methylbenzoate]: the results for the IC50 in assay [1] and in assay [2] were 100 to 1000 nM and < 100 nM, respectively.
On to `CCc1ccc(N(CC(C)C)S(=O)(=O)c2ccc3c(CC4CCOCC4)n[nH]c3c2)cc1` [Compound 63, 3-(tetrahydropyran-4-ylmethyl)-1H-indazole-6-sulfonic acid (4-ethylphenyl)isobutylamide], for which the IC50 in assay [1] and in assay [2] was < 100 nM throughout.
On to `CCc1ccc(N(CC(C)C)S(=O)(=O)c2ccc3c(CN4CCOCC4)n[nH]c3c2)cc1` [Compound 64, 3-morpholin-4-ylmethyl-1H-indazole-6-sulfonic acid (4-ethylphenyl)isobutylamide], for which the IC50 in assay [1] and in assay [2] was < 100 nM in each case.
On to `Cc1cc(C)c(N(CC(C)C)S(=O)(=O)c2ccc3c(cnn3CC3CCOCC3)c2)cn1` [Compound 71, 1-(tetrahydropyran-4-ylmethyl)-1H-indazole-5-sulfonic acid (4,6-dimethylpyridin-3-yl)isobutylamide], for which the IC50 in assay [1] and in assay [2] was > 1000 nM each time.
Take `CC(C)CN(c1ccc(N(C)C)cc1)S(=O)(=O)c1ccc2c(cnn2CC2CCOCC2)c1` [Compound 72, 1-(tetrahydropyran-4-ylmethyl)-1H-indazole-5-sulfonic acid (4-dimethylaminophenyl)isobutylamide]: the IC50 in assay [1] and in assay [2] was 100 to 1000 nM each time.

Source of the values: US10752617B2 (GALDERMA RESEARCH & DEVELOPMENT, priority 2014, dated 2020).
